Results taken from article PMC8457121, “From Kinase Inhibitors to Multitarget Ligands as Powerful Drug Leads for Alzheimer's Disease using Protein‐Templated Synthesis” (Angewandte Chemie (International Ed. in English), 2021).

Tests used:
[1] = target: T1, LRRK2 (Homo sapiens, UniProt Q5S007); test: LRRK2 inhibition enzymatic assay (Adapta, ThermoFisher); assay type: biochemical
T1 construct: purchased ThermoFisher (assay run by the company)

[2] = PAMPA-BBB test; assay type: in vitro ADME; details: PBS pH 7.4 with 5% DMSO
Experimental: CNS penetration: in vitro PAMPA-BBB test. Prediction of the brain penetration was evaluated using a parallel artificial membrane permeability assay (PAMPA).1
Nine quality control compounds (mentioned below) of know BBB permeability
were included in each experiment to validate the analysis set.2 Commercial drugs
dissolved in 250 µL of DMSO (Sigma-Aldrich). 25 µL of these compound stock
solutions were taken and 225 µL of DMSO and 4750 µL of PBS pH 7.4 buffer
were added to reach 5% of DMSO concentration in the experiment and a final
compound concentration in the range of 0.2 to 1.1 mM. Compounds to be
determined their ability to pass the brain barrier (0.5-1 mg) were dissolved in 250
µL of DMSO and 4750 µL of PBS pH 7.4 was carefully added to afford a final
compound concentration in the range of 0.2 to 1.1 mM. Solutions were filtered
using filter PDVF membrane units (diameter 30 mm, pore size 0.45 μm, Symta).
10 µL of each solution were taken and diluted 10-fold with PBS/DMSO (95/5) for
HPLC-MS analysis. The acceptor 96-well plate (Multiscreen®, catalog no.
MAMCS9610, Millipore) was filled with 180 µL of PBS/DMSO (95/5). The donor
96-well plate (Multiscreen® IP Sterile Plate PDVF membrane, pore size is 0.45
M, catalog no. MAIPS4510, Millipore) was coated with 4 µL 20 mg·mL-1 of
for 5 min and then 180 µL of each compound solution was added. Then the donor
plate was put on the acceptor plate and kept for 2.5 h at room temperature. After
incubation, samples were collected from the acceptor plate and diluted 10-fold
with PBS/DMSO (95/5) for HPLC-MS analysis and compared to HPLC-MS of
initial solutions. Absorbance peak of each compound was determined by MS
detection and was used to calculate the concentration of compounds and
Every sample was analysed in two independent
runs. HPLC-MS was performed using a HPLC-MS equipment from Thermo
Fisher coupled to a Finnigan TM LXQ TM detector. Each compound was
analysed using a Sunfire column C18, 3.5 μm (50 mm x 4.6 mm) and acetonitrile
and Milli-Q water (with 0.1% formic acid) as mobile phase. The standard gradient

[3] = target: BACE1 (Homo sapiens, UniProt P56817); test: In situ click chemistry with BACE1 as template (LC/MS-SIM); details: BACE1 0.5 μM, reagents 100 μM, 24 h, room temperature, sodium acetate pH 4.5
Experimental: confirmed by molecular weight. Control experiments in the absence of BACE1 were set up every time the reactions were performed. Experiment with the presence of BSA (1 mg mL−1) instead of the BACE1 enzyme was performed for […]
LRRK2 inhibition enzymatic assay. The LRRK2 inhibitors were evaluated by the ThermoFisher company under the following Adapta Assay. The assay itself can be divided into two phases: a kinase reaction phase, and an ADP detection phase. In the kinase reaction phase, all components required for the kinase reaction are added to the well, and the reaction is allowed to incubate for 60 minutes. After the reaction, a detection solution consisting of a europium labeled anti-ADP antibody, an Alexa Fluor™ 647 labeled ADP tracer, and EDTA (to stop the kinase reaction) is added to the assay well. ADP formed by the kinase reaction (in the absence of an inhibitor) will displace the Alexa Fluor 647 labeled ADP tracer from the antibody, resulting in a decrease in the TR-FRET signal. In the presence of an inhibitor, the amount of ADP formed by the kinase reaction is reduced, and the resulting intact antibodytracer interaction results in a high TR-FRET signal. ADP formation is determined by calculating the emission ratio from […]
The 2X LRRK2 / ERM (LRRKtide) mixture is prepared in 50 mM Tris pH 8.5, […]
Reaction consists of 3.75 - 70 ng LRRK2 and 200 μM ERM (LRRKtide) in 25 mM […]
NaN3. […]

Sequence of BACE1 (P56817 46-501): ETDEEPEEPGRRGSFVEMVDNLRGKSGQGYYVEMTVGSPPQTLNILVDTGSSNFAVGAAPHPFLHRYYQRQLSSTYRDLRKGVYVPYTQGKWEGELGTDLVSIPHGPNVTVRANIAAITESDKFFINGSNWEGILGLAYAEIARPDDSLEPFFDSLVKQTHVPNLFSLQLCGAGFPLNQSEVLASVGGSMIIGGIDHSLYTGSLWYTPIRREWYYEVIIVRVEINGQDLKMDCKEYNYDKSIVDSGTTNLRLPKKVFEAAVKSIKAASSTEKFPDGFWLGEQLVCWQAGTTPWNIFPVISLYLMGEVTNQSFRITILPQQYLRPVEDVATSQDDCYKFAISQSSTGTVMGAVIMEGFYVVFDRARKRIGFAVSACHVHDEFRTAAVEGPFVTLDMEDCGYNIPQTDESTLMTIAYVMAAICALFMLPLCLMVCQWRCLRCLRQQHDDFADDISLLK
T1 sequence (Q5S007 whole entry): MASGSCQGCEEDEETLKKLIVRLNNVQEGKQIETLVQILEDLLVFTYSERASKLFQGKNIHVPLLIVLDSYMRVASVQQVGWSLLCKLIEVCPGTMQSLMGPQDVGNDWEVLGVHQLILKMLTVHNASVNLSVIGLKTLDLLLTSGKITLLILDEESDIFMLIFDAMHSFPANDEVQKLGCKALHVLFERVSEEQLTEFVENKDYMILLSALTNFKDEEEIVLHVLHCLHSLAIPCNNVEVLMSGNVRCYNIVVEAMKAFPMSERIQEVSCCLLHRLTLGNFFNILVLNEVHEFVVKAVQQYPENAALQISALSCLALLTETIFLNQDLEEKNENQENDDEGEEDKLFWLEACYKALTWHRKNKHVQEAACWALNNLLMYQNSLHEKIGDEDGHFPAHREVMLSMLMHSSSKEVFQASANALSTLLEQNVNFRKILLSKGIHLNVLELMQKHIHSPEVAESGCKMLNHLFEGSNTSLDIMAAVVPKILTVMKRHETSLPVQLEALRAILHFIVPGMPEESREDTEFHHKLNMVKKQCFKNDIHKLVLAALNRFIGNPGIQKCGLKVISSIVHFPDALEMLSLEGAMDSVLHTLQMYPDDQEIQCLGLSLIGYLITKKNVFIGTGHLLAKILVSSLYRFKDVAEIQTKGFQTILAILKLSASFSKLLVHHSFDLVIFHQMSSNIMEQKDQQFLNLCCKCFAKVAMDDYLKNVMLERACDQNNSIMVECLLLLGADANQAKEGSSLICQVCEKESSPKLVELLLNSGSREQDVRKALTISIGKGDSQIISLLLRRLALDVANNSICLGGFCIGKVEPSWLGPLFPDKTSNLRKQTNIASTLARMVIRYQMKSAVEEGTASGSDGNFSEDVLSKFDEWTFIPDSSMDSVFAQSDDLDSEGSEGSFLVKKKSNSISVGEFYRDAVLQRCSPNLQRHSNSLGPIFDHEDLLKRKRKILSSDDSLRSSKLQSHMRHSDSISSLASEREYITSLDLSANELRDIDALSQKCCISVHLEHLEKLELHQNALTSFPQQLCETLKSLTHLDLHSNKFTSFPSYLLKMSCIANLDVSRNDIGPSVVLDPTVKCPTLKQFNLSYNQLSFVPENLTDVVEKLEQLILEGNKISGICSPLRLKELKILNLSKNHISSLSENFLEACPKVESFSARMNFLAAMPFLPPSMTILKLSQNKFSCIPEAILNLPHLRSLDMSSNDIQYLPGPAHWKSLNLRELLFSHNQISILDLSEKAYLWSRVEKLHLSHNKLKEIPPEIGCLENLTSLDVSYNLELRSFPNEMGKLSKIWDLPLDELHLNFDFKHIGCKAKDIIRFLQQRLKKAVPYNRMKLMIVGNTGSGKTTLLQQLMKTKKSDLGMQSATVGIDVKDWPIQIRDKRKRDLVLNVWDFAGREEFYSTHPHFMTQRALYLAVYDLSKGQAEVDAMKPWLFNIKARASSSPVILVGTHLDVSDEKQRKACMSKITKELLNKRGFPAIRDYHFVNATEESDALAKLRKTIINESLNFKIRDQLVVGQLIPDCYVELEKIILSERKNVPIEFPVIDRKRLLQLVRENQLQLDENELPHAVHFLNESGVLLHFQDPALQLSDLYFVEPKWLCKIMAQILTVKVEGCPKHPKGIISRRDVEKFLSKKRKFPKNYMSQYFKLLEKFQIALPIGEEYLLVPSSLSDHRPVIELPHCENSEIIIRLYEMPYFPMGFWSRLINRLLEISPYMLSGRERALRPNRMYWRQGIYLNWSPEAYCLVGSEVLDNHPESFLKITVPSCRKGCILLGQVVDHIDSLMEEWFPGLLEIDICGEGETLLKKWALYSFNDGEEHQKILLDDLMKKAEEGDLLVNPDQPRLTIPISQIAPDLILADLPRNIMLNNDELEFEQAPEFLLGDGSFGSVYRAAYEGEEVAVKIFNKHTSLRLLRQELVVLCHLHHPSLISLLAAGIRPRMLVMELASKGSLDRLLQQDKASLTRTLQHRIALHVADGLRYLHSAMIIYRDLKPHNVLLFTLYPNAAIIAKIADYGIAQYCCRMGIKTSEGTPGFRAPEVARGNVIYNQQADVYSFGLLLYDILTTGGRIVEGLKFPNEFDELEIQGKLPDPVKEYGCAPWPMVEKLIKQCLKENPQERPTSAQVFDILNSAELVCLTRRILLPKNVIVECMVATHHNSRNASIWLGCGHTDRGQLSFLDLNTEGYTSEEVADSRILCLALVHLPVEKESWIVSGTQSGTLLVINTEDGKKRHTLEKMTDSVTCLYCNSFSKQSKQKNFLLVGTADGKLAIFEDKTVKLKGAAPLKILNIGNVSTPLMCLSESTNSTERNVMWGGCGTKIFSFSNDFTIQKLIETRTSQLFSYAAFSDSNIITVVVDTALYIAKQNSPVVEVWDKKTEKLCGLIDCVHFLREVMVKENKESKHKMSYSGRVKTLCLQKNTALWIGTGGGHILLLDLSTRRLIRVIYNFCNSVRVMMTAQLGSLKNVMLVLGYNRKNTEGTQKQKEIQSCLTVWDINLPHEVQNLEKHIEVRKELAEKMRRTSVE

O=C(Nc1nc2ccccc2s1)c1ccc(Cn2cc(COc3ccc(C(=O)Nc4nc5ccccc5s4)cc3)nn2)cc1 [compound 8]
IC50 [1]: 1.83 µM
Solubility in the conditions of the PAMPA experiment [2]: insoluble
Triazole formation from building blocks in presence of BACE1 [3]: observed
